From ChEMBL document CHEMBL1144268, “Unified Markov thermodynamics based on stochastic forms to classify drugs considering molecular structure, partition system, and biological species: distribution of the antimicrobial G1 on rat tissues” (2005)

What was measured:
Assay type in all cases: functional
Rattus norvegicus [1] = organism: Rattus norvegicus; experiment: Plasma concentration measured in rat liver after treatment with the compound
Rattus norvegicus [2] = organism: Rattus norvegicus; experiment: Partition coefficient in rat lung
Rattus norvegicus [3] = organism: Rattus norvegicus; experiment: Partition coefficient in rat liver
Rattus norvegicus [4] = organism: Rattus norvegicus; experiment: Plasma concentration measured in rat spleen after treatment with the compound
Rattus norvegicus [5] = organism: Rattus norvegicus; experiment: Partition coefficient in rat adipose tissue
Rattus norvegicus [6] = organism: Rattus norvegicus; experiment: Plasma concentration measured in rat lung after treatment with the compound
Rattus norvegicus [7] = organism: Rattus norvegicus; experiment: Plasma concentration measured in rat plasma after treatment with the compound
Rattus norvegicus [8] = organism: Rattus norvegicus; experiment: Plasma concentration measured in rat adipose tissue after treatment with the compound
Rattus norvegicus [9] = organism: Rattus norvegicus; experiment: Partition coefficient in rat spleen

O=[N+]([O-])/C(Br)=C/C1CCC(Br)O1 (centres undefined)
C (Rattus norvegicus [1]): 42.25 mg/mL
PC (Rattus norvegicus [2]): 1.91
PC (Rattus norvegicus [3]): 4.75
C (Rattus norvegicus [4]): 11.47 mg/mL
PC (Rattus norvegicus [5]): 3.17
C (Rattus norvegicus [6]): 17.04 mg/mL
C (Rattus norvegicus [7]): 8.9 mg/mL
C (Rattus norvegicus [8]): 28.19 mg/mL
PC (Rattus norvegicus [9]): 1.29
